Data as given in PubChem BioAssay (NCI).
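Each compound was tested at five concentrations against cells in 96-well plates for 48 hours. TGI: concentration producing complete growth inhibition.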

Legend:
Experiment in all cases: NCI anticancer screen, dose series, 48 h
OVCAR-3 ovarian = test system: OVCAR-3 ovarian
U251 CNS = test system: U251 CNS
SNB-75 CNS = test system: SNB-75 CNS
SR leukemia = test system: SR leukemia
MCF7 breast = test system: MCF7 breast
SK-MEL-2 melanoma = test system: SK-MEL-2 melanoma
HCC-2998 colon = test system: HCC-2998 colon
MOLT-4 leukemia = test system: MOLT-4 leukemia
HOP-92 NSCLC = test system: HOP-92 NSCLC
NCI-H226 lung = test system: NCI-H226 lung
A498 renal = test system: A498 renal
OVCAR-8 ovarian = test system: OVCAR-8 ovarian
OVCAR-5 ovarian = test system: OVCAR-5 ovarian
HOP-62 NSCLC = test system: HOP-62 NSCLC
EKVX NSCLC = test system: EKVX NSCLC
OVCAR-4 ovarian = test system: OVCAR-4 ovarian
UO-31 renal = test system: UO-31 renal
SF-539 CNS = test system: SF-539 CNS
MDA-MB-435 = test system: MDA-MB-435
T-47D breast = test system: T-47D breast
CCRF-CEM leukemia = test system: CCRF-CEM leukemia
TK-10 renal = test system: TK-10 renal
UACC-257 melanoma = test system: UACC-257 melanoma
K-562 leukemia = test system: K-562 leukemia
CAKI-1 renal = test system: CAKI-1 renal
UACC-62 melanoma = test system: UACC-62 melanoma
SK-OV-3 ovarian = test system: SK-OV-3 ovarian
RPMI-8226 leukemia = test system: RPMI-8226 leukemia
HT29 colon = test system: HT29 colon
BT-549 breast = test system: BT-549 breast
RXF 393 renal = test system: RXF 393 renal
HL-60(TB) leukemia = test system: HL-60(TB) leukemia
HS 578T breast = test system: HS 578T breast
MDA-MB-231 breast = test system: MDA-MB-231 breast
SW-620 colon = test system: SW-620 colon
NCI/ADR-RES ovarian = test system: NCI/ADR-RES ovarian
KM12 colon = test system: KM12 colon
A549 NSCLC = test system: A549 NSCLC
IGROV1 ovarian = test system: IGROV1 ovarian
LOX IMVI melanoma = test system: LOX IMVI melanoma
MALME-3M melanoma = test system: MALME-3M melanoma
DU-145 prostate = test system: DU-145 prostate
HCT-116 colon = test system: HCT-116 colon
SNB-19 CNS = test system: SNB-19 CNS
PC-3 prostate = test system: PC-3 prostate
SN12C renal = test system: SN12C renal
NCI-H460 lung = test system: NCI-H460 lung
COLO 205 colon = test system: COLO 205 colon
M14 melanoma = test system: M14 melanoma
786-0 renal = test system: 786-0 renal
SK-MEL-5 melanoma = test system: SK-MEL-5 melanoma
ACHN renal = test system: ACHN renal
SF-295 CNS = test system: SF-295 CNS
NCI-H23 lung = test system: NCI-H23 lung
HCT-15 colon = test system: HCT-15 colon
NCI-H522 lung = test system: NCI-H522 lung
MDA-N = test system: MDA-N
SF-268 CNS = test system: SF-268 CNS
SK-MEL-28 melanoma = test system: SK-MEL-28 melanoma

For CCCCc1ccc(Nc2nc(=S)c3ncn(COCCO)c3[nH]2)cc1, the TGI (OVCAR-3 ovarian) was 74.4 µM, the TGI (U251 CNS) was > 100 µM and the TGI (SNB-75 CNS) was 97.9 µM. For the same compound, the TGI (SR leukemia) was 66.7 µM, the TGI (MCF7 breast) was 54.1 µM and the TGI (SK-MEL-2 melanoma) was 90.4 µM. The TGI (HCC-2998 colon) was > 100 µM, the TGI (MOLT-4 leukemia) was > 100 µM and the TGI (HOP-92 NSCLC) was 63.4 µM. The TGI (NCI-H226 lung) was > 100 µM, the TGI (A498 renal) was > 100 µM and the TGI (OVCAR-8 ovarian) was > 100 µM. The TGI (OVCAR-5 ovarian) was > 100 µM, the TGI (HOP-62 NSCLC) was > 100 µM and the TGI (EKVX NSCLC) was > 100 µM. For the same compound, the TGI (OVCAR-4 ovarian) was > 100 µM, the TGI (UO-31 renal) was > 100 µM and the TGI (SF-539 CNS) was > 100 µM. For the same compound, the TGI (MDA-MB-435) was > 100 µM, the TGI (T-47D breast) was 46.8 µM and the TGI (CCRF-CEM leukemia) was 59.7 µM. For the same compound, the TGI (TK-10 renal) was > 100 µM, the TGI (UACC-257 melanoma) was > 100 µM and the TGI (K-562 leukemia) was 51.7 µM. The TGI (CAKI-1 renal) was > 100 µM, the TGI (UACC-62 melanoma) was > 100 µM and the TGI (SK-OV-3 ovarian) was > 100 µM. The TGI (RPMI-8226 leukemia) was 54 µM, the TGI (HT29 colon) was > 100 µM and the TGI (BT-549 breast) was > 100 µM. The TGI (RXF 393 renal) was > 100 µM, the TGI (HL-60(TB) leukemia) was 54.4 µM and the TGI (HS 578T breast) was > 100 µM. The TGI (MDA-MB-231 breast) was 57.6 µM, the TGI (SW-620 colon) was > 100 µM and the TGI (NCI/ADR-RES ovarian) was > 100 µM. The TGI (KM12 colon) was > 100 µM, the TGI (A549 NSCLC) was > 100 µM and the TGI (IGROV1 ovarian) was > 100 µM. The TGI (LOX IMVI melanoma) was 76.1 µM, the TGI (MALME-3M melanoma) was 47.1 µM and the TGI (DU-145 prostate) was > 100 µM. The TGI (HCT-116 colon) was > 100 µM, the TGI (SNB-19 CNS) was > 100 µM and the TGI (PC-3 prostate) was > 100 µM. For the same compound, the TGI (SN12C renal) was > 100 µM, the TGI (NCI-H460 lung) was > 100 µM and the TGI (COLO 205 colon) was 44.5 µM. For the same compound, the TGI (M14 melanoma) was > 100 µM, the TGI (786-0 renal) was > 100 µM and the TGI (SK-MEL-5 melanoma) was > 100 µM. The TGI (ACHN renal) was > 100 µM, the TGI (SF-295 CNS) was > 100 µM and the TGI (NCI-H23 lung) was > 100 µM. The TGI (HCT-15 colon) was > 100 µM, the TGI (NCI-H522 lung) was 51.3 µM and the TGI (MDA-N) was > 100 µM.
With O=c1[nH]nc(Cc2ccccc2)n1/N=C\CC/C=N\n1c(Cc2ccccc2)n[nH]c1=O the TGI (OVCAR-3 ovarian) was > 100 µM, the TGI (U251 CNS) was > 100 µM and the TGI (SNB-75 CNS) was 58.7 µM. The TGI (SR leukemia) was > 100 µM, the TGI (MCF7 breast) was > 100 µM and the TGI (SK-MEL-2 melanoma) was 90.3 µM. The TGI (HCC-2998 colon) was > 100 µM, the TGI (MOLT-4 leukemia) was > 100 µM and the TGI (HOP-92 NSCLC) was > 100 µM. The TGI (NCI-H226 lung) was 83.1 µM, the TGI (A498 renal) was > 100 µM and the TGI (OVCAR-8 ovarian) was 58.9 µM. For the same compound, the TGI (OVCAR-5 ovarian) was > 100 µM, the TGI (HOP-62 NSCLC) was 88.4 µM and the TGI (EKVX NSCLC) was > 100 µM. For the same compound, the TGI (OVCAR-4 ovarian) was > 100 µM, the TGI (SF-268 CNS) was 77.7 µM and the TGI (UO-31 renal) was > 100 µM. The TGI (SF-539 CNS) was 66.3 µM, the TGI (MDA-MB-435) was > 100 µM and the TGI (T-47D breast) was > 100 µM. For the same compound, the TGI (CCRF-CEM leukemia) was > 100 µM, the TGI (TK-10 renal) was > 100 µM and the TGI (UACC-257 melanoma) was > 100 µM. The TGI (K-562 leukemia) was > 100 µM, the TGI (CAKI-1 renal) was > 100 µM and the TGI (SK-MEL-28 melanoma) was > 100 µM. The TGI (UACC-62 melanoma) was 46.6 µM, the TGI (SK-OV-3 ovarian) was > 100 µM and the TGI (RPMI-8226 leukemia) was 80.9 µM. The TGI (HT29 colon) was 83.3 µM, the TGI (BT-549 breast) was > 100 µM and the TGI (RXF 393 renal) was 72.5 µM. For the same compound, the TGI (HL-60(TB) leukemia) was > 100 µM, the TGI (HS 578T breast) was 53.1 µM and the TGI (MDA-MB-231 breast) was > 100 µM. For the same compound, the TGI (SW-620 colon) was > 100 µM, the TGI (NCI/ADR-RES ovarian) was 41.5 µM and the TGI (KM12 colon) was > 100 µM. The TGI (A549 NSCLC) was > 100 µM, the TGI (IGROV1 ovarian) was 40.7 µM and the TGI (LOX IMVI melanoma) was > 100 µM. For the same compound, the TGI (MALME-3M melanoma) was 77.7 µM, the TGI (DU-145 prostate) was > 100 µM and the TGI (HCT-116 colon) was 48.7 µM. The TGI (SNB-19 CNS) was > 100 µM, the TGI (PC-3 prostate) was > 100 µM and the TGI (SN12C renal) was > 100 µM. For the same compound, the TGI (COLO 205 colon) was > 100 µM, the TGI (M14 melanoma) was > 100 µM and the TGI (786-0 renal) was > 100 µM. For the same compound, the TGI (SK-MEL-5 melanoma) was > 100 µM, the TGI (ACHN renal) was > 100 µM and the TGI (SF-295 CNS) was > 100 µM. The TGI (NCI-H23 lung) was 66.6 µM, the TGI (HCT-15 colon) was 75 µM and the TGI (NCI-H522 lung) was > 100 µM. For the same compound, the TGI (MDA-N) was > 100 µM.
In the case of COc1ccc(OC)c(N2C(=O)/C(=C\c3ccccc3)SC2c2cc(OC)c(OC)c(OC)c2)c1 (stereo unspecified), the TGI (OVCAR-3 ovarian) is reported as > 100 µM, the TGI (U251 CNS) is reported as > 100 µM and the TGI (SNB-75 CNS) is reported as > 100 µM. The TGI (SR leukemia) was > 100 µM, the TGI (MCF7 breast) was > 42.7 µM and the TGI (SK-MEL-2 melanoma) was > 100 µM. For the same compound, the TGI (HCC-2998 colon) was > 100 µM, the TGI (MOLT-4 leukemia) was > 100 µM and the TGI (HOP-92 NSCLC) was > 100 µM. For the same compound, the TGI (NCI-H226 lung) was > 100 µM, the TGI (A498 renal) was > 100 µM and the TGI (OVCAR-8 ovarian) was > 100 µM. For the same compound, the TGI (OVCAR-5 ovarian) was > 100 µM, the TGI (HOP-62 NSCLC) was > 100 µM and the TGI (EKVX NSCLC) was > 100 µM. For the same compound, the TGI (OVCAR-4 ovarian) was > 100 µM, the TGI (SF-268 CNS) was > 100 µM and the TGI (UO-31 renal) was > 100 µM. The TGI (MDA-MB-435) was > 75 µM, the TGI (T-47D breast) was > 100 µM and the TGI (CCRF-CEM leukemia) was > 100 µM. For the same compound, the TGI (TK-10 renal) was > 100 µM, the TGI (UACC-257 melanoma) was > 100 µM and the TGI (K-562 leukemia) was > 100 µM. For the same compound, the TGI (CAKI-1 renal) was > 100 µM, the TGI (SK-MEL-28 melanoma) was > 100 µM and the TGI (SK-OV-3 ovarian) was > 100 µM. The TGI (RPMI-8226 leukemia) was > 100 µM, the TGI (HT29 colon) was > 100 µM and the TGI (BT-549 breast) was > 100 µM. For the same compound, the TGI (RXF 393 renal) was > 31.4 µM, the TGI (HL-60(TB) leukemia) was > 100 µM and the TGI (HS 578T breast) was > 100 µM. The TGI (MDA-MB-231 breast) was > 100 µM, the TGI (SW-620 colon) was > 100 µM and the TGI (NCI/ADR-RES ovarian) was > 100 µM. For the same compound, the TGI (KM12 colon) was > 100 µM, the TGI (A549 NSCLC) was > 100 µM and the TGI (IGROV1 ovarian) was > 100 µM. The TGI (LOX IMVI melanoma) was > 100 µM, the TGI (MALME-3M melanoma) was > 100 µM and the TGI (DU-145 prostate) was > 100 µM. For the same compound, the TGI (HCT-116 colon) was > 100 µM, the TGI (SNB-19 CNS) was > 100 µM and the TGI (PC-3 prostate) was > 100 µM. For the same compound, the TGI (SN12C renal) was > 100 µM, the TGI (COLO 205 colon) was > 100 µM and the TGI (M14 melanoma) was > 100 µM. For the same compound, the TGI (786-0 renal) was > 100 µM, the TGI (SK-MEL-5 melanoma) was > 100 µM and the TGI (ACHN renal) was 6.85 µM. The TGI (SF-295 CNS) was > 100 µM, the TGI (NCI-H23 lung) was > 100 µM and the TGI (HCT-15 colon) was > 100 µM. For the same compound, the TGI (NCI-H522 lung) was 74.9 µM and the TGI (MDA-N) was 52.1 µM.
